From patent US11845803B2, “Combination therapies for treatment of BCMA-related cancers and autoimmune disorders” (Fred Hutchinson Cancer Center, priority 2017, dated 2023) come the findings set out here.

Series [1] has as its system myeloma cell lines (8226, U266B1, MM1.R, H929). The experiment in a line: Surface BCMA expression on myeloma cell lines incubated with GSI, flow cytometry. It counts as cell-based, human. Here is the method: (A) Cell surface BCMA was measured on four myeloma cell lines (8226, U266B1, MM1.R, H929) by flow cytometry with an anti-BCMA monoclonal antibody before, and 5 hours after (see diagrams), incubation of the myeloma cell lines with GSI RO4929097 in a range of concentrations from 0 μM (DMSO control) to 1.0 μM. (E) U266 myeloma cells were incubated for 1, 3, 5 and 24 hours in the presence of various concentrations of GSI RO429097 (0.01 μM, 0.1 μM and 1.0 μM) and evaluated for surface BCMA expression by flow cytometry. […] (F) Fold change of surface BCMA expression on cell lines (MM1R=triangle; U266=square; 8226=circle) cultured in 1 μM GSI over time. GSI was re-administered as a half media change every 2 days. Fold change in BCMA is defined as Treated (MFIBCMA-MFIiso)/Control (MFIBCMA-MFIiso). Data is representative of at least 2 independent experiments. To examine the effect of γ-secretase inhibition on BCMA levels on myeloma cells, γ-secretase inhibitor (GSI) RO4929097 was used. […] To examine the effect of GSI on surface BCMA expression kinetics, U266 myeloma cells were incubated for 1, 3, 5 and 24 hours in the presence of various concentrations of GSI RO429097 (0.01 μM, 0.1 μM and 1.0 μM) and evaluated for cell surface BCMA expression by flow cytometry. […] The upregulation persisted over 7 days of culture in 1.0 μM GSI (FIG. 3F). Next, the effect of removing GSI from MM cell culture was examined. […] Finally, the viability of the tested MM cell lines was not affected by addition of 1.0 μM RO429097 to culture (FIG. 3L).
A general note: A flow cytometer gives signals particle by particle.

The test system of series [2] is myeloma cell lines (MM1.R, U266 and 8226). Briefly: Soluble BCMA (sBCMA) in culture supernatant of myeloma cell lines with GSI, ELISA. It is filed as cell-based, human. The procedure: (I) U266 myeloma cells were washed and plated in culture media in the presence of various concentrations of GSI RO429097 (0.01 μM, 0.1 μM and 1.0 μM). The media supernatant was harvested after 1, 3, 5 and 24 hours and assayed for soluble BCMA (sBCMA) by ELISA. […] To test the effect of GSI on BCMA shedding in MM, three different myeloma cell lines (MM1.R, U266 and 8226) were washed and plated in culture media for 24 hours in the presence of various concentrations of GSI RO429097 (0.01 μM, 0.1 μM and 1.0 μM). The media supernatant was harvested and assayed for sBCMA by ELISA. sBCMA levels decreased in the supernatant in the presence of a GSI in a dose dependent manner (FIGS. 3G & 3H). To examine the effect on soluble BCMA (sBCMA) levels over time, U266 cells were washed and plated in culture media for 1, 3, 5 and 24 hours in the presence of various concentrations of GSI RO429097 (0.01 μM, 0.1 μM and 1.0 μM). The media supernatant was harvested and assayed for soluble BCMA (sBCMA) by ELISA. […] Next, the effect of removing GSI from MM cell culture was examined. […] Finally, the viability of the tested MM cell lines was not affected by addition of 1.0 μM RO429097 to culture (FIG. 3L).
On the technique in general: An ELISA detects its analyte on a solid surface through an enzyme-linked reagent.

Series [3] concerns CD138+ primary myeloma cells. Briefly: Surface BCMA and other surface molecules on primary patient myeloma cells incubated with GSI, flow cytometry. It counts as cell-based, human. The procedure:
(N) Fold change in BCMA on primary myeloma cells (n=7) cultured with vary amounts of GSI for 4 h. Primary and cell lines were cultured at 0.5×10^6 cells/mL. Fold change in BCMA is defined as Treated (MFIBCMA-MFIiso)/Control (MFIBCMA-MFIiso). Data is representative of 3 independent experiments with T cells derived from different donors. […] (R) CD138+ primary myeloma cells were enriched from patient bone marrow samples, incubated for 3 hours in the presence of various concentrations of GSI RO429097 (0.01 μM to 10 μM) and evaluated for surface BCMA expression by flow cytometry. BCMA mean fluorescence intensity (MFI) on tumor cells is presented as fold increase over that observed on tumor cells incubated without RO429097. There is an observed dose dependent upregulation of BCMA. The effect of GSI on BCMA expression was then tested on primary myeloma samples from patients. CD138^+ myeloma cells were enriched from patient bone marrow samples, incubated for 3 hours in the presence of various concentrations of GSI RO429097 (0.01 μM to 10 μM) and evaluated for surface BCMA expression by flow cytometry (FIGS. 3M and 3R). BCMA mean fluorescence intensity (MFI) on tumor cells is presented as fold increase over tumor cells incubated without RO4929097.

Another series concerns primary human T cells. The experiment in a line: Primary human T cell viability in GSI, trypan blue dye exclusion. It counts as cell-based. The following applies: 0.01 μM to 100 μM; 24 hours. Here is the method:
(B) Primary human T cells were cultured in GSI RO4929097 at concentrations ranging from 0.01 μM to 100 μM and viability was measured by trypan blue dye exclusion after 24 hours. There was no effect of GSI, at any concentration, on T cell viability.

Series [4] concerns MM.1R myeloma cells in NSG mice. The experiment in a line: GSI activity in disseminated MM.1R xenograft model (surface BCMA, serum sBCMA). It counts as in vivo, mouse. The procedure:
(A) Experimental scheme for a disseminated xenograft murine myeloma model. NSG mice were irradiated (275 rad) to facilitate tumor engraftment and received human MM tumor cells (5×10^6 MM.1R) followed by GSI treatment (30 mg/kg). […] (B) Fold change in surface BCMA expression on myeloma cells in mice euthanized at the indicated timepoints following the second GSI administration. (C) Levels of sBCMA in sera from mouse sacrificed at the indicated timepoints after administration of RO4929097. To investigate whether the sBCMA-inhibiting effects of GSI RO4929097 described in Example 4 could be replicated in vivo, a mouse xenograft model of human MM was tested as illustrated in FIG. 6A. Briefly, immunodeficient NOD/SCID gamma (NSG) mice (The Jackson Laboratory) received sublethal irradiation (275 rad) at day −1, followed by 5×10^6 MM.1R cells the next day (day 0). GSI RO4929097 (30 mg/kg) was administered by oral gavage at day 19 and day 20. Mice were sacrificed at different times after the second gavage administration of the GSI and blood and bone marrow samples were taken for analysis. GSI dosing was followed by a rapid increase (>3-fold by 4 hours post-second gavage) in surface BCMA expression on the tumor cells (FIG. 6B) and a concurrent decrease in sBCMA (FIG. 6C).

Where [5] appears, read: U266, 1, 3, 5 and 24 hours, 0.01, 0.1 and 1.0 μM.

On to `CC(C)(C(=O)NCC(F)(F)C(F)(F)F)C(=O)N[C@@H]1C(=O)Nc2ccccc2-c2ccccc21` [RO4929097], for which the “persistence of surface BCMA upregulation in culture” value in series [1] (1.0 μM GSI, GSI re-administered every 2 days) was ≥ 7 days. In series [1] (GSI 0.001 μM to 1.0 μM), the “surface BCMA on myeloma cell lines” value is listed as “rapidly upregulated”. In series [1] (U266, 0.01-1.0 μM GSI), the “time of peak increase in surface BCMA expression” value came to 5 h. Moreover, the “cell surface BCMA expression on U266 cells” value in series [1] (setting [5]) is “increased in a dose-dependent manner”. Also, in series [1] (after removal of 1.0 μM GSI), the “surface BCMA levels following removal of GSI” value is “decreased”. In addition, the “effect of GSI on surface BCMA shedding (reversibility)” value in series [2] (1.0 μM GSI removed or continued) is “reversible inhibitory effect”. The “sBCMA levels in supernatant” value in series [2] (MM1.R, U266 and 8226, 24 hours, 0.01, 0.1 and 1.0 μM) is “decreased”. Also, the “GSI concentration at which BCMA release into supernatant was decreased” value in series [2] (U266, 1, 3, 5 and 24 hours) is recorded as “at least 0.01 μM”. Further, the “soluble BCMA levels in supernatant over time” value in series [2] (setting [5]) is “dose-dependent decrease”. Besides, in series [2] (after removal of 1.0 μM GSI vs continued GSI), the “supernatant sBCMA following removal of GSI” value is “increased when the GSI was removed”. Further, the “surface BCMA (MFI, fold increase) on primary myeloma cells” value in series [3] (3 hours, 0.01 μM to 10 μM) was “dose-dependent upregulation”. Also, the “levels of other cell surface molecules (CS1, CD86, PD-L1, CD80, CD38)” value in series [3] (primary myeloma cells, various GSI concentrations) was “no effect”. Besides, in the series with primary human T cells, the T cell viability result was “no effect”. Besides, the “time after second gavage within which observed effects were generally reduced” value in series [4] (30 mg/kg oral gavage) is ≤ 48 h. In addition, in series [4] (30 mg/kg oral gavage day 19 and 20), the sBCMA in sera entry is reported as “decrease”. In addition, the “increase in surface BCMA expression on tumor cells” value in series [4] (30 mg/kg oral gavage day 19 and 20, 4 hours post-second gavage) is reported as > 3 fold.
